Source: PubChem BioAssay (NCI)
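Where inhibition never reached the appropriate level, the endpoint shown equals the highest concentration tested. Otherwise, values were interpolated linearly from a five-concentration, 48-hour dose response in 96-well plates. The concentration for 50% growth inhibition is given as GI50. TGI: concentration producing complete growth inhibition.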

Assays:
Assay in all cases: NCI anticancer screen, dose series, 48 h
SW-620 colon = test system: SW-620 colon
HOP-92 NSCLC = test system: HOP-92 NSCLC
NCI-H522 lung = test system: NCI-H522 lung
KM20L2 colon = test system: KM20L2 colon
KM12 colon = test system: KM12 colon
A498 renal = test system: A498 renal
XF 498 CNS = test system: XF 498 CNS
NCI/ADR-RES ovarian = test system: NCI/ADR-RES ovarian
DMS 273 small cell lung = test system: DMS 273 small cell lung
HOP-62 NSCLC = test system: HOP-62 NSCLC
OVCAR-4 ovarian = test system: OVCAR-4 ovarian
786-0 renal = test system: 786-0 renal
OVCAR-5 ovarian = test system: OVCAR-5 ovarian
HT29 colon = test system: HT29 colon
SNB-19 CNS = test system: SNB-19 CNS
SNB-75 CNS = test system: SNB-75 CNS
MCF7 breast = test system: MCF7 breast
SNB-78 CNS = test system: SNB-78 CNS
COLO 205 colon = test system: COLO 205 colon
UO-31 renal = test system: UO-31 renal
DU-145 prostate = test system: DU-145 prostate
LOX IMVI melanoma = test system: LOX IMVI melanoma
SK-MEL-28 melanoma = test system: SK-MEL-28 melanoma
MDA-MB-435 = test system: MDA-MB-435
HS 578T breast = test system: HS 578T breast
SN12C renal = test system: SN12C renal
HL-60(TB) leukemia = test system: HL-60(TB) leukemia
U251 CNS = test system: U251 CNS
M14 melanoma = test system: M14 melanoma
OVCAR-8 ovarian = test system: OVCAR-8 ovarian
TK-10 renal = test system: TK-10 renal
UACC-62 melanoma = test system: UACC-62 melanoma
ACHN renal = test system: ACHN renal
SF-268 CNS = test system: SF-268 CNS
HCC-2998 colon = test system: HCC-2998 colon
SK-MEL-5 melanoma = test system: SK-MEL-5 melanoma
PC-3 prostate = test system: PC-3 prostate
HCT-116 colon = test system: HCT-116 colon
EKVX NSCLC = test system: EKVX NSCLC
SR leukemia = test system: SR leukemia
UACC-257 melanoma = test system: UACC-257 melanoma
NCI-H23 lung = test system: NCI-H23 lung
MALME-3M melanoma = test system: MALME-3M melanoma
T-47D breast = test system: T-47D breast
A549 NSCLC = test system: A549 NSCLC
MDA-MB-231 breast = test system: MDA-MB-231 breast
SF-539 CNS = test system: SF-539 CNS
RXF 393 renal = test system: RXF 393 renal
M19-MEL melanoma = test system: M19-MEL melanoma
HCT-15 colon = test system: HCT-15 colon
RPMI-8226 leukemia = test system: RPMI-8226 leukemia
OVCAR-3 ovarian = test system: OVCAR-3 ovarian
SK-MEL-2 melanoma = test system: SK-MEL-2 melanoma
K-562 leukemia = test system: K-562 leukemia
SK-OV-3 ovarian = test system: SK-OV-3 ovarian
CCRF-CEM leukemia = test system: CCRF-CEM leukemia
NCI-H460 lung = test system: NCI-H460 lung
IGROV1 ovarian = test system: IGROV1 ovarian
BT-549 breast = test system: BT-549 breast
MOLT-4 leukemia = test system: MOLT-4 leukemia
CAKI-1 renal = test system: CAKI-1 renal
NCI-H226 lung = test system: NCI-H226 lung
SF-295 CNS = test system: SF-295 CNS
RXF-631 renal = test system: RXF-631 renal
DLD-1 colon = test system: DLD-1 colon
HOP-18 NSCLC = test system: HOP-18 NSCLC
LXFL 529 NSCLC = test system: LXFL 529 NSCLC
DMS 114 small cell lung = test system: DMS 114 small cell lung

Structure (SMILES): CC(=O)OC12COC1CC(O)C1(C)C(=O)C(O)C3=C(C)C(O)CC(O)(C(OC(=O)c4ccccc4)C21)C3(C)C (stereo not given)
- GI50 (SW-620 colon): 2.48 µM
- TGI (SW-620 colon): > 100 µM
- TGI (HOP-92 NSCLC): > 100 µM
- TGI (NCI-H522 lung): 11.2 µM
- TGI (KM20L2 colon): 5.42 µM
- GI50 (KM12 colon): 1.22 µM
- TGI (KM12 colon): > 100 µM
- TGI (A498 renal): > 100 µM
- TGI (XF 498 CNS): > 100 µM
- TGI (NCI/ADR-RES ovarian): > 100 µM
- TGI (DMS 273 small cell lung): 17.6 µM
- TGI (HOP-62 NSCLC): > 100 µM
- TGI (OVCAR-4 ovarian): > 100 µM
- TGI (786-0 renal): > 100 µM
- TGI (OVCAR-5 ovarian): > 42.2 µM
- TGI (HT29 colon): > 44.8 µM
- TGI (SNB-19 CNS): > 100 µM
- TGI (SNB-75 CNS): > 29.9 µM
- TGI (MCF7 breast): > 100 µM
- TGI (SNB-78 CNS): > 100 µM
- TGI (COLO 205 colon): 5.29 µM
- TGI (UO-31 renal): > 100 µM
- TGI (DU-145 prostate): > 100 µM
- TGI (LOX IMVI melanoma): > 100 µM
- TGI (SK-MEL-28 melanoma): > 100 µM
- TGI (MDA-MB-435): 1.48 µM
- GI50 (HS 578T breast): 1.36 µM
- TGI (HS 578T breast): 6.15 µM
- TGI (SN12C renal): > 100 µM
- TGI (HL-60(TB) leukemia): 24.3 µM
- TGI (U251 CNS): > 74.3 µM
- TGI (M14 melanoma): > 100 µM
- TGI (OVCAR-8 ovarian): > 100 µM
- TGI (TK-10 renal): > 100 µM
- TGI (UACC-62 melanoma): > 100 µM
- TGI (ACHN renal): > 100 µM
- TGI (SF-268 CNS): > 100 µM
- TGI (HCC-2998 colon): 59.3 µM
- TGI (SK-MEL-5 melanoma): 29.5 µM
- TGI (PC-3 prostate): > 28.5 µM
- TGI (HCT-116 colon): > 73.6 µM
- TGI (EKVX NSCLC): > 100 µM
- TGI (SR leukemia): > 100 µM
- TGI (UACC-257 melanoma): > 100 µM
- TGI (NCI-H23 lung): > 100 µM
- TGI (MALME-3M melanoma): > 100 µM
- TGI (T-47D breast): > 100 µM
- TGI (A549 NSCLC): > 100 µM
- TGI (MDA-MB-231 breast): > 100 µM
- TGI (SF-539 CNS): 5.51 µM
- TGI (RXF 393 renal): > 100 µM
- TGI (M19-MEL melanoma): > 100 µM
- TGI (HCT-15 colon): > 100 µM
- TGI (RPMI-8226 leukemia): > 59.8 µM
- TGI (OVCAR-3 ovarian): > 39.2 µM
- GI50 (SK-MEL-2 melanoma): 1.84 µM
- TGI (SK-MEL-2 melanoma): 6.51 µM
- TGI (K-562 leukemia): > 100 µM
- TGI (SK-OV-3 ovarian): > 100 µM
- TGI (CCRF-CEM leukemia): > 100 µM
- TGI (NCI-H460 lung): > 100 µM
- TGI (IGROV1 ovarian): > 100 µM
- TGI (BT-549 breast): > 100 µM
- TGI (MOLT-4 leukemia): > 100 µM
- TGI (CAKI-1 renal): > 100 µM
- TGI (NCI-H226 lung): > 100 µM
- TGI (SF-295 CNS): > 100 µM

Structure (SMILES): NCCNCc1c2ccccc2c(CNCCN)c2ccccc12
- TGI (SW-620 colon): > 100 µM
- TGI (HOP-92 NSCLC): 45.9 µM
- TGI (NCI-H522 lung): 21.2 µM
- TGI (KM20L2 colon): 74.1 µM
- TGI (KM12 colon): 62.6 µM
- TGI (A498 renal): 75.3 µM
- TGI (HOP-62 NSCLC): 69.3 µM
- TGI (786-0 renal): 53.4 µM
- TGI (OVCAR-5 ovarian): 97.5 µM
- TGI (HT29 colon): > 100 µM
- TGI (SNB-78 CNS): 82.1 µM
- TGI (COLO 205 colon): > 100 µM
- TGI (UO-31 renal): > 100 µM
- TGI (RXF-631 renal): > 100 µM
- TGI (SN12C renal): 58.9 µM
- TGI (HL-60(TB) leukemia): 58.6 µM
- TGI (U251 CNS): 97.7 µM
- TGI (M14 melanoma): 35.2 µM
- TGI (OVCAR-8 ovarian): 60.3 µM
- TGI (TK-10 renal): > 100 µM
- TGI (UACC-62 melanoma): 53.5 µM
- TGI (ACHN renal): > 100 µM
- TGI (SF-268 CNS): 27.4 µM
- TGI (HCC-2998 colon): 23.3 µM
- TGI (SK-MEL-5 melanoma): 90.3 µM
- TGI (HCT-116 colon): 48.3 µM
- TGI (EKVX NSCLC): 50.1 µM
- TGI (SR leukemia): > 100 µM
- TGI (UACC-257 melanoma): 35.5 µM
- TGI (NCI-H23 lung): 35.2 µM
- TGI (MALME-3M melanoma): 29.8 µM
- TGI (DLD-1 colon): > 100 µM
- TGI (A549 NSCLC): 38.7 µM
- TGI (SF-539 CNS): 29.5 µM
- TGI (HOP-18 NSCLC): 90.1 µM
- TGI (RXF 393 renal): 38.6 µM
- TGI (M19-MEL melanoma): 84.4 µM
- TGI (HCT-15 colon): > 100 µM
- TGI (OVCAR-3 ovarian): 70.8 µM
- TGI (SK-MEL-2 melanoma): 29.1 µM
- TGI (K-562 leukemia): 36.7 µM
- TGI (LXFL 529 NSCLC): 22.1 µM
- TGI (DMS 114 small cell lung): 33.1 µM
- TGI (CCRF-CEM leukemia): 86.2 µM
- TGI (NCI-H460 lung): 27 µM
- TGI (IGROV1 ovarian): > 100 µM
- TGI (MOLT-4 leukemia): 30.9 µM
- TGI (SF-295 CNS): 82.8 µM
